Converted amounts (≈) assume the structure as drawn.
Tests used:
[1] = tested on: Staphylococcus aureus cultures; assay: Broth dilution MIC in trypticase soy broth, low and high NaCl (Example 10); assay type: cell-based; details: for MIC: Staphylococcus aureus, TSB, read-out: MIC
Procedure: This example compares the antibiotic activities of methicillin, cephalothin and cephaloridine with the compounds of Examples 1, 2 and 3, in broth dilution tests. The MIC values, in μg/ml., are against the same Staphylococcus aureus cultures described in Example 9, except that in this example the cultures were grown in trypticase soy broth (TSB). Growing the cultures in two broth cultures, one having a low (0.5 percent) sodium chloride content and one having a high (5.0 percent) sodium chloride content is said to assist in identifying the methicillin-resistant cultures from those which are not methicillin-resistant. […] See Chabbert, Y. A., 1967 Postgrad. Med. J., 43 (suppl); 40-46. One expects that similar changes in MIC values for this type of culture to other β-lactam antibiotics, e.g., various penicillins and cephalosporins, to have similar implications. […] That is, methicillin-resistant S.aureus cultures are susceptible to the cephalosporin antibiotics used in this invention.

[2] = tested on: Staphylococcus aureus cultures; assay: Agar dilution susceptibility test, phenylthioacetyl cephalosporins vs methicillin resistant S. aureus (Example 9); assay type: cell-based; details: Staphylococcus aureus, read-out: MIC
Text: This example compares the antibiotic activities of three known compounds, methicillin, cephalothin, and cephaloridine, with three compounds from the above examples, in terms of minimum inhibitory concentration (MIC) values in microgram/milliliter units against various isolates of Staphylococcus aureus cultures. The culture numbers and the procedures used to obtain the reported data are disclosed by W. E. Wick and D. A. Preston in their article "Heterogeneous Methicillin-Resistant Staphylococcus Aureus" which appeared in Progress in Antimicrobial And Anticancer Chemotherapy, Proceedings of the 6th International Congress of Chemotherapy, Volume, 1, U. of Tokyo Press, Tokyo, (1970). In these agardilution susceptibility tests, the inocula were diluted to 10^3 bacteria per spot. Cultures 3055 (benzylpenicillin sensitive) and H232 (benzylpenicillin-resistant) are controls. The remaining cultures are methicillin-resistant, and, except for 3136, are clinical isolates. Culture 3136 is a 4th transfer laboratory selected mutant.

[3] = culture 3130, table part marked b
[4] = culture 3130, table part marked c
[5] = culture 3131, table part marked b
[6] = culture 3131, table part marked c
[7] = culture 3134, table part marked b
[8] = culture 3134, table part marked c
[9] = culture 3135, table part marked b
[10] = culture 3135, table part marked c
[11] = culture 3136, table part marked b
[12] = culture 3136, table part marked c
[13] = culture 3137, table part marked b
[14] = culture 3137, table part marked c
[15] = culture 3138, table part marked b
[16] = culture 3138, table part marked c
[17] = culture 3139, table part marked b
[18] = culture 3139, table part marked c
[19] = culture (Seattle) 966, table part marked b
[20] = culture (Seattle) 966, table part marked c
[21] = culture S61, table part marked b
[22] = culture S61, table part marked c

difference in MIC values in low versus high salt TSB cultures ([1]; 0.5 percent vs 5.0 percent NaCl, methicillin-resistant S. aureus): wide disparity in MIC values
MIC ([1]; culture 3055 (control), table part marked b): 2 µg/mL (≈ 5.26 µM)
MIC ([1]; culture 3055 (control), table part marked c): 2 µg/mL (≈ 5.26 µM)
MIC [1, 3]: 16 µg/mL (≈ 42.1 µM)
MIC [1, 4]: 64 µg/mL (≈ 168 µM)
MIC [1, 5]: 16 µg/mL (≈ 42.1 µM)
MIC [1, 6]: 128 µg/mL (≈ 336 µM)
MIC ([1]; culture 3132 (first column so headed), table part marked b): 32 µg/mL (≈ 84.1 µM)
MIC ([1]; culture 3132 (first column so headed), table part marked c): 64 µg/mL (≈ 168 µM)
MIC ([1]; culture 3132 (second column so headed), table part marked b): 8 µg/mL (≈ 21 µM)
MIC ([1]; culture 3132 (second column so headed), table part marked c): 128 µg/mL (≈ 336 µM)
MIC [1, 7]: 32 µg/mL (≈ 84.1 µM)
MIC [1, 8]: 64 µg/mL (≈ 168 µM)
MIC [1, 9]: 32 µg/mL (≈ 84.1 µM)
MIC [1, 10]: 64 µg/mL (≈ 168 µM)
MIC [1, 11]: 32 µg/mL (≈ 84.1 µM)
MIC [1, 12]: 128 µg/mL (≈ 336 µM)
MIC [1, 13]: > 128 µg/mL
MIC [1, 14]: > 128 µg/mL
MIC [1, 15]: 128 µg/mL (≈ 336 µM)
MIC [1, 16]: 128 µg/mL (≈ 336 µM)
MIC [1, 17]: 16 µg/mL (≈ 42.1 µM)
MIC [1, 18]: > 128 µg/mL
MIC [1, 19]: 8 µg/mL (≈ 21 µM)
MIC [1, 20]: 64 µg/mL (≈ 168 µM)
MIC ([1]; culture H232 (control), table part marked b): 4 µg/mL (≈ 10.5 µM)
MIC ([1]; culture H232 (control), table part marked c): 4 µg/mL (≈ 10.5 µM)
MIC ([1]; culture Kavarnick 1138501, table part marked b): 32 µg/mL (≈ 84.1 µM)
MIC ([1]; culture Kavarnick 1138501, table part marked c): 128 µg/mL (≈ 336 µM)
MIC [1, 21]: 16 µg/mL (≈ 42.1 µM)
MIC [1, 22]: 64 µg/mL (≈ 168 µM)
MIC ([1]; culture S, table part marked b): 16 µg/mL (≈ 42.1 µM)
MIC ([1]; culture S, table part marked c): 16 µg/mL (≈ 42.1 µM)
MIC ([2]; culture 3055 (control, benzylpenicillin sensitive), table part marked b): 1 µg/mL (≈ 2.63 µM)
MIC ([2]; culture 3055 (control, benzylpenicillin sensitive), table part marked c): 2 µg/mL (≈ 5.26 µM)
MIC [2, 3]: 8 µg/mL (≈ 21 µM)
MIC [2, 4]: 128 µg/mL (≈ 336 µM)
MIC [2, 5]: 8 µg/mL (≈ 21 µM)
MIC [2, 6]: 128 µg/mL (≈ 336 µM)
MIC ([2]; culture 3132, table part marked b): 8 µg/mL (≈ 21 µM)
MIC ([2]; culture 3132, table part marked c): 32 µg/mL (≈ 84.1 µM)
MIC ([2]; culture 3133, table part marked b): 8 µg/mL (≈ 21 µM)
MIC ([2]; culture 3133, table part marked c): 128 µg/mL (≈ 336 µM)
MIC [2, 7]: 16 µg/mL (≈ 42.1 µM)
MIC [2, 8]: 64 µg/mL (≈ 168 µM)
MIC [2, 9]: 8 µg/mL (≈ 21 µM)
MIC [2, 10]: 64 µg/mL (≈ 168 µM)
MIC [2, 11]: 8 µg/mL (≈ 21 µM)
MIC [2, 12]: 64 µg/mL (≈ 168 µM)
MIC [2, 13]: > 128 µg/mL
MIC [2, 14]: > 128 µg/mL
MIC [2, 15]: 16 µg/mL (≈ 42.1 µM)
MIC [2, 16]: > 128 µg/mL
MIC [2, 17]: 8 µg/mL (≈ 21 µM)
MIC [2, 18]: > 128 µg/mL
MIC [2, 19]: 8 µg/mL (≈ 21 µM)
MIC [2, 20]: 64 µg/mL (≈ 168 µM)
MIC ([2]; culture H232 (control, benzylpenicillin-resistant), table part marked b): 2 µg/mL (≈ 5.26 µM)
MIC ([2]; culture H232 (control, benzylpenicillin-resistant), table part marked c): 2 µg/mL (≈ 5.26 µM)
MIC ([2]; culture Kavarmark 1138501, table part marked b): 8 µg/mL (≈ 21 µM)
MIC ([2]; culture Kavarmark 1138501, table part marked c): 128 µg/mL (≈ 336 µM)
MIC [2, 21]: 8 µg/mL (≈ 21 µM)
MIC [2, 22]: 128 µg/mL (≈ 336 µM)
SMILES: COc1cccc(OC)c1C(=O)N[C@@H]1C(=O)N2[C@@H]1SC(C)(C)[C@@H]2C(=O)O [Methicillin, methicillin]

Source: patent publication US4175125A, “Method for treating methicillin resistant staphylococcus aureus” (Eli Lilly and Company, priority 1978, dated 1979)
